Experimental data taken from US20220348592A1, “FUSED HETEROCYCLIC DERIVATIVES” (Janssen Sciences Ireland Unlimited Company, priority 2019, published 2022).

How the values were obtained:
[1] = Cytotoxicity in HepG2.117 cells, ATPlite Luminescence Assay; assay type: cell-based, human; conditions: human, incubated for 3 days, mean value, read-out: TOX-HepG2.117 CC50 (μM, mean value)
Description: Cytotoxicity of the compounds was tested using HepG2 or HepG2.117 cells, incubated for 3 days in the presence of compounds. The viability of the cells was assessed using the PERKIN ELMER ATPlite Luminescence Assay System.”

HBV = experiment: Anti-HBV activity: intracellular HBV DNA by real-time PCR in HepG2.117 cell line; assay type: cell-based, Hepatitis B virus; conditions: Hepatitis B virus, 72 h; HepG2.117 cells, 3 days of treatment, intracellular HBV DNA by real-time PCR, mean value; read-out: HBV-AVE-HepG2.117 EC50 (μM, mean value)
Description: The anti HBV activity was measured using the HepG2.117 cell line, a stable, inducibly HBV producing cell line, which replicates HBV in the absence of doxicycline (Tet-off system). The HepG2 cell line is available from ATCC® under number HB-8065. Transfection of the HepG2 cell line can be as described in Sun and Nassal 2006 Journal of Hepatology 45 (2006) 636-645 “Stable HepG2- and Huh7-based human hepatoma cell lines for efficient regulated expression of infectious hepatitis B virus”.
For the antiviral assay, HBV replication was induced, followed by a treatment with serially diluted compound in 96-well plates. After 3 days of treatment, the antiviral activity was determined by quantification of intracellular HBV DNA using real-time PCR and an HBV specific primer set and probe.

Structure (SMILES) | CC50 at 3 days [1] | EC50 (HBV)
COc1ccc(CN2CCCn3nc4c(c3C2=O)CN(C(=O)c2ccc(Cl)c(Cl)c2)[C@H](C)C4)cc1 [Compound 40, (3R)-2-(3,4-Dichlorobenzoyl)-10-[(4-methoxyphenyl)methyl]-3-methyl-1,2,3,4,7,8,9,10-octahydro-11H-pyrido[4′,3′:3,4]pyrazolo[1,5-a][1,4]diazepin-11-one] | 20.9 µM | 0.022 µM
COc1ccc(CN2CC(NS(C)(=O)=O)Cn3nc4c(c3C2=O)CN(C(=O)c2ccc(Cl)c(Cl)c2)CC4)cc1 (stereo not drawn) [Compound 41, N-{2-(3,4-Dichlorobenzoyl)-10-[(4-methoxyphenyl)methyl]-11-oxo-1,3,4,7,8,9,10,11-octahydro-2H-pyrido[4′,3′:3,4]pyrazolo[1,5-a][1,4]diazepin-8-yl}methanesulfonamide] | > 50 µM | 0.328 µM
C=C1CN(C)C(=O)c2c3c(nn2C1)C[C@@H](C)N(C(=O)c1ccc(Cl)c(Cl)c1)C3 [Compound 42, (3R)-2-(3,4-Dichlorobenzoyl)-3,10-dimethyl-8-methylidene-1,2,3,4,7,8,9,10-octahydro-11H-pyrido[4′,3′:3,4]pyrazolo[1,5-a][1,4]diazepin-11-one] | 1.44 µM | 0.308 µM
C=C1CN(CC(F)(F)F)C(=O)c2c3c(nn2C1)CCN(C(=O)c1ccc(Cl)c(Cl)c1)C3 [Compound 43, 2-(3,4-Dichlorobenzoyl)-8-methylidene-10-(2,2,2-trifluoroethyl)-1,2,3,4,7,8,9,10-octahydro-11H-pyrido[4′,3′:3,4]pyrazolo[1,5-a][1,4]diazepin-11-one] | > 50 µM | 0.21 µM
C[C@@H]1Cc2nn3c(c2CN1C(=O)c1ccc(Cl)c(Cl)c1)C(=O)N(C)C[C@@H](F)C3 [Compound 44] | > 50 µM | 0.079 µM
O=C(c1ccc(Cl)c(Cl)c1)N1CCc2nn3c(c2C1)C(=S)NCCC3 [Compound 48, (3,4-dichlorophenyl)(11-sulfanylidene-1,3,4,7,8,9,10,11-octahydro-2H-pyrido[4′,3′:3,4]pyrazolo-[1,5-a][1,4]diazepin-2-yl)methanone] | > 50 µM | 1.23 µM
COc1ccc(CN2CCn3nc4c(c3C2=O)CN(C(=O)c2ccc(F)c(C)c2)CC4)cc1 [Example C49] | 20.6 µM | 0.274 µM
COc1ccc(CN2CCn3nc4c(c3C2=O)CN(C(=O)c2ccc(F)c(C#N)c2)CC4)cc1 [Example C52] | > 50 µM | 0.995 µM
COc1ccc(CN2CCn3nc4c(c3C2=O)CN(C(=O)c2ccc(C)c(F)c2)CC4)cc1 [Example C53] | 20.4 µM | 1.08 µM
COc1ccc(CN2CCn3nc4c(c3C2=O)CN(C(=O)c2cccc(Cl)c2)CC4)cc1 [Example C54] | 13.6 µM | 1.99 µM
COc1ccc(CN2CCn3nc4c(c3C2=O)CN(C(=O)c2cc(F)c(F)c(F)c2)CC4)cc1 [Example C56] | 28.4 µM | 0.962 µM
COc1ccc(CN2CCn3nc4c(c3C2=O)CN(C(=O)c2ccc(Cl)c(C(F)F)c2)CC4)cc1 [Example C57] | 18.9 µM | 0.04 µM
COc1ccc(CCN2CCn3nc4c(c3C2=O)CN(C(=O)c2ccc(Cl)c(Cl)c2)[C@H](C)C4)cc1 [Example C58] | 18 µM | 0.531 µM
C[C@@H]1Cc2nn3c(c2CN1C(=O)c1ccc(Cl)c(Cl)c1)C(=O)N(Cc1ncccn1)CC3 [Example C60] | > 50 µM | 0.565 µM
COc1ccc(CN2CCn3nc4c(c3C2=O)CN(C(=O)c2ccc(C(F)F)c(Cl)c2)CC4)cc1 [Example C62] | 9.31 µM | 0.13 µM
COc1ccc(CN2CCn3nc4c(c3C2=O)CN(C(=O)c2ccc(Cl)c(C#N)c2)CC4)cc1 [Example C64] | > 49 µM | 0.089 µM
C[C@@H]1Cc2nn3c(c2CN1C(=O)c1ccc(Cl)c(Cl)c1)C(=O)N(Cc1cnccn1)CC3 [Example C65] | > 50 µM | 0.299 µM
C[C@@H]1Cc2nn3c(c2CN1C(=O)c1ccc(Cl)c(Cl)c1)C(=O)N(Cc1cccc(OC(F)F)c1)CC3 [Example C66] | 9.18 µM | 0.042 µM
